Measured values published in the NIST ThermoML archive (doi:10.1021/je9009915).

Conditions: Liquid

FCC(F)(F)F [1,1,1,2-tetrafluoroethane]
Conditions | vapor or sublimation pressure [kPa]
303.45 K | 775.7
308.44 K | 892.2
313.3 K | 1018.8
318.39 K | 1165.4
323.3 K | 1319
328.26 K | 1492.4
333.3 K | 1683.7
338.24 K | 1889.6
343.23 K | 2115.3
